Data from US7034208B1, “Ahas inhibiting herbicide resistant wheat and method for selection thereof” (BASF Aktiengellschaft, priority 1991, dated 2006).

Assays:
[1] = system: wheat embryos (M3 of FS1-FS4, Fidel); test: M3 Plant Screen: In vitro (excised embryos cultured on herbicide medium); type: cell-based
Description: M3 plants from the four initial plant selections (labelled FS1, FS2, FS3 and FS4) are screened for PURSUIT™ resistance in vitro. M3 seeds from each mature infloresence of these initial M2 mutants are disinfested in 70% EtOH for 30 seconds followed by disinfestation in 50% solution containing 2.625% sodium hypochlorite (as described above) for 20 minutes under vaccuum with gentle agitation provided by a stir plate. The seeds are soaked in sterile distilled water in 100×5 mm sterile plastic petri dishes for 20-24 hours after which the embryos are excised and cultured onto medium containing either 10^−4, 10^−5, or 10^−6 M PURSUIT™. […] Embryo ratings are taken at either two and one-half or three weeks after culture initiation.

[2] = system: testcross progeny Fidel x (Fidel/FS1-FS4); test: Genetic Condition Studies Experiment 3, testcrosses back to Fidel; type: in vivo, wheat; conditions: out of 49 test-cross progeny sprayed; 200 g/ha; rated three and one-half weeks later
Description: Experiment 3: Testcrosses of the F1 hybrids (described in Experiment 1) back to Fidel are sprayed with 200 g/ha of PURSUIT™. The following testcrosses are planted in 6 inch azalea pots in Metro Mix 350™. The number of pots planted per cross is indicated by the number after the cross:
Approximately one month later, the plants are sprayed (except for Fidel). PURSUIT™ (200 g/ha) is applied as previously described. The plants are rated three and one-half weeks later.

[3] = system: AHAS (acetohydroxyacid synthase); test: AHAS enzyme assay, Initial Assay (M3 Plants); type: biochemical, wheat
Description: Herbicide Application: M3 plants from the four initial mutant plants (FS1, FS2, FS3 and FS4), are tested for metabolic AHAS (acetohydroxyacid synthase) activity. […] When these plants are three weeks old, two plants of each mutant selection, FS1-FS4, receive a second application of PURSUIT™ at 62.5 g/ha while two of each selection are left unsprayed. Sprayed and unsprayed susceptible Fidel plants are also included in this experiment. […] Compound 9 is 2-acetamido-2,3-dimethyl-N-(p-tolylsulfonyl)butyramide, and is described in U.S. Pat. No. 4,883,914.
Enzyme Extraction: For the extraction of AHAS, 10 grams of tissue are powdered in liquid nitrogen and then homogenized in 100 mM potassium phosphate buffer (pH 7.5) containing 10 mM pyruvate, 5 mM MgCl2, 5 uM EDTA, 100 uM FAD, 1 mM valine, 1 mM leucine, 10% glycerol, and 10 mM cysteine. The homogenate is filtered through a nylon cloth (53 uM mesh) and centrifuged at 25,000 g for 20 minutes. […]
AHAS Assay: AHAS activity is measured by estimation of the product, acetolactate, after conversion by decarboxylation in the presence of acid to acetoin. […] The acetoin formed is determined by incubating with creatine (0.17%) and 1-napthol (1.7% in 4N NaOH) by the method of Westerfield (Westerfield, W. W., J. Biol. Chem., 161, 495-502 (1945)). […] The absorption of color complex is measured at 520 nm. […]

[4] = system: AHAS (acetohydroxyacid synthase); test: AHAS Enzyme Assay I and II (M4 Plants); type: biochemical, wheat
Description: Enzyme Extraction: For the extraction of AHAS, 10 grams of tissue are powdered in liquid nitrogen and then homogenized in 100 mM potassium phosphate buffer (pH 7.5) containing 10 mM pyruvate, 5 mM MgCl2, 5 uM EDTA, 100 uM FAD, 1 mM valine, 1 mM leucine, 10% glycerol, and 10 mM cysteine. The homogenate is filtered through a nylon cloth (53 uM mesh) and centrifuged at 25,000 g for 20 minutes. The supernatant fraction is brought to 50% saturation with respect to (NH4)2SO4 and allowed to stand for 20-30 minutes on ice. It is then centrifuged at 25,000 g for 20 minutes and the supernatant is discarded. The ammonium sulfate pellet is dissolved in 50 mM potassium phosphate buffer (pH 7.5) containing 1 mM EDTA and 100 mM NaCl and used for the assay procedures.
AHAS Assay: AHAS activity is measured by estimation of the product, acetolactate, after conversion by decarboxylation in the presence of acid to acetoin. Standard reaction mixtures contain the enzyme in 50 mM potassium phosphate buffer (pH 7.0) containing 100 mM sodium pyruvate, 10 mM MgCl2, 1 mM thiamine pyrophosphate, and 10 uM FAD. This mixture is incubated at 37° C. for one hour after which time the reaction is stopped with the addition of […] to make a final concentration of 0.85% […] in the tube. The reaction product is allowed to decarboxylate at 60° C. for 15 minutes. The acetoin formed is determined by incubating with creatine (0.17%) and 1-napthol (1.7% in 4N NaOH) by the method of Westerfield (Westerfield, W. W., J. Biol. Chem., 161, 495-502 (1945)). Maximum color is observed by incubation at 60° C. for 15 minutes and then further incubation at room temperature for 15 minutes. The absorption of color complex is measured at 520 nm. Appropriate checks of direct acetoin formation during the enzyme assay are made. Each assay is run at least in duplicate and the experiments are repeated a minimum of two times.
Herbicide Application: Two flats are planted with approximately 100 seeds of each wheat selection (FS1, FS2, and FS4) and Fidel in sterile Metro Mix 350. Ten days later, each flat is sprayed postemergence with 62.5 g/ha of PURSUIT™. The spray delivery rate is 400 L/ha with a belt speed of 8.2 sec/rev using nozzle #65015E. Tween 20™ is used as a surfactant at 0.25% v/v. The plants are harvested three days later and assayed for AHAS activity.
Enzyme Extraction and AHAS Assay: As previously described.
Herbicide Application: As described above (Enzyme Assay I) except that the spray delivery rate is 950 l/ha with a belt speed of 12.8 sec/rev using nozzle #40015E.

[5] = Control 2 = Fidel on medium with herbicide, concentration 10^−5
[6] = Control 2 = Fidel on medium with herbicide, concentration 10^−6
[7] = Control M3 = M3 seed on medium with herbicide (footnote), section 10^−5
[8] = Control M3 = M3 seed on medium with herbicide (footnote), section 10^−6
[9] = FS1 M3 embryos, concentration 10^−5
[10] = FS1 M3 embryos, concentration 10^−6
[11] = FS2 M3 embryos, concentration 10^−5
[12] = FS2 M3 embryos, concentration 10^−6
[13] = FS3 M3 embryos, concentration 10^−5
[14] = FS3 M3 embryos, concentration 10^−6
[15] = FS4 M3 embryos, concentration 10^−5
[16] = FS4 M3 embryos, concentration 10^−6

In the case of `CCc1cnc(C2=NC(C)(C(C)C)C(=O)N2)c(C(=O)O)c1` (stereo not drawn) [PURSUIT, 5-ethyl-2-(4-isopropyl-4-methyl-5-oxo-2-imidazolin-2-yl)-nicotinic acid], the “Embryo Rating D (Damaged), number of embryos” value (shortened to “Embryo Rating D (Damaged)”) [1, 5] is reported as 0, the “Embryo Rating S (Susceptible), number of embryos” value (“Embryo Rating S (Susceptible)” for short) [1, 5] is reported as 30 and the “Embryo Rating T (Tolerant), number of embryos” value (“Embryo Rating T (Tolerant)” below) [1, 5] is reported as 0. For the same compound, the “Embryo Rating D (Damaged)” value [1, 6] was 0, the “Embryo Rating S (Susceptible)” value [1, 6] was 15 and the “Embryo Rating T (Tolerant)” value [1, 6] was 0. The “Ave. Shoot Height” value [1, 7] was 14.7 cm, the “Embryo Rating D (Damaged)” value [1, 7] was 1 and the “Embryo Rating S (Susceptible)” value [1, 7] was 1. For the same compound, the “Embryo Rating T (Tolerant)” value [1, 7] was 27, the “Range Shoot Heights” value [1, 7] was 1-28 cm and the “Ave. Shoot Height” value [1, 8] was 14.6 cm. For the same compound, the “Embryo Rating D (Damaged)” value [1, 8] was 0, the “Embryo Rating S (Susceptible)” value [1, 8] was 0 and the “Embryo Rating T (Tolerant)” value [1, 8] was 15. For the same compound, the “Range Shoot Heights” value [1, 8] was 2-28 cm, the “Embryo Rating D (Damaged)” value [1, 9] was 16 and the “Embryo Rating S (Susceptible)” value [1, 9] was 42. The “Embryo Rating T (Tolerant)” value [1, 9] was 21, the “Range Shoot Heights” value [1, 9] was 0-1.5 cm and the “Ave. Shoot Height” value [1, 10] was 9.1 cm. For the same compound, the “Embryo Rating D (Damaged)” value [1, 10] was 0, the “Embryo Rating S (Susceptible)” value [1, 10] was 0 and the “Embryo Rating T (Tolerant)” value [1, 10] was 70. For the same compound, the “Range Shoot Heights” value [1, 10] was 1-22 cm, the “Embryo Rating D (Damaged)” value [1, 11] was 14 and the “Embryo Rating S (Susceptible)” value [1, 11] was 45. The “Embryo Rating T (Tolerant)” value [1, 11] was 21, the “Range Shoot Heights” value [1, 11] was 0-3.5 cm and the “Ave. Shoot Height” value [1, 12] was 11.4 cm. The “Embryo Rating D (Damaged)” value [1, 12] was 1, the “Embryo Rating S (Susceptible)” value [1, 12] was 0 and the “Embryo Rating T (Tolerant)” value [1, 12] was 64. The “Range Shoot Heights” value [1, 12] was 1-23 cm, the “Embryo Rating D (Damaged)” value [1, 13] was 9 and the “Embryo Rating S (Susceptible)” value [1, 13] was 58. For the same compound, the “Embryo Rating T (Tolerant)” value [1, 13] was 12, the “Range Shoot Heights” value [1, 13] was 0-4.5 cm and the “Ave. Shoot Height” value [1, 14] was 5.2 cm. The “Embryo Rating D (Damaged)” value [1, 14] was 12, the “Embryo Rating S (Susceptible)” value [1, 14] was 22 and the “Embryo Rating T (Tolerant)” value [1, 14] was 34. For the same compound, the “Range Shoot Heights” value [1, 14] was 1-23 cm, the “Embryo Rating D (Damaged)” value [1, 15] was 15 and the “Embryo Rating S (Susceptible)” value [1, 15] was 31. The “Embryo Rating T (Tolerant)” value [1, 15] was 16, the “Range Shoot Heights” value [1, 15] was 0-3.0 cm and the “Ave. Shoot Height” value [1, 16] was 13.4 cm. For the same compound, the “Embryo Rating D (Damaged)” value [1, 16] was 8, the “Embryo Rating S (Susceptible)” value [1, 16] was 13 and the “Embryo Rating T (Tolerant)” value [1, 16] was 59. For the same compound, the “Range Shoot Heights” value [1, 16] was 1-33 cm, the embryos that germinate ([1]; Fidel controls or M3 embryos, medium containing 10^−4 M) was “None of the embryos” and the tolerance of embryos ([1]; M3 embryos, 10^−5 M in the medium, still considerable growth inhibition) was “somewhat tolerant”. The test-cross progeny killed [2] was 20, the “test-cross progeny that survive” value [2] was 29 and the “resistance of AHAS to inhibition” value ([3]; FS1-FS4 M3 plants sprayed with 62.5 g/ha PURSUIT, compared to sprayed wild type) was “dramatic increase in the AHAS resistance”. For the same compound, the “resistance of AHAS to inhibition” value ([3]; resistant wheat lines, unsprayed M3 plants) was “weak resistance”, the “resistance of AHAS activity to inhibition” value ([4]; homozygous resistant mutant lines, unsprayed plants, compared to Fidel enzyme) was “moderate levels of resistance” and the “resistance of AHAS activity to inhibition” value ([4]; selections sprayed with 62.5 g/ha PURSUIT, compared to sprayed Fidel) was “significantly higher level of resistance”.
